{"source": "paper PMC6418785", "about": "“Presenting Precision Glycomacromolecules on Gold Nanoparticles for Increased Lectin Binding” (Polymers, 2017)", "key": {"Concanavalin A (Con A) [1]": {"molecular_target": "T1, Concanavalin A (Con A) (Canavalia ensiformis, UniProt P02866)", "T1 construct": "purchased LKT Laboratories (Biomol, Hamburg, Germany)", "assay": "SPR inhibition competition assay, Con A binding to mannosylated sensor chip", "conditions": "for IC50: 100 nM Con A, LBB; for RIP per Carbohydrate Ligand: corrected for carbohydrate number per nanoparticle; for RIP per Glycomacromolecular Ligand: corrected for glycomacromolecule number per nanoparticle; for RIP: relative inhibitory potency based on IC50 of αMeMan on same chip (IP ≡ 1)", "description": "As sensor chip a SA (streptavidin) chip from GE Healthcare Life Sciences was used. The positive (α-D-Mannose-PAA-biotin, flow cell 2) and negative (α-D-Galactose-PAA-biotin, flow cell 1) control for Con A binding were immobilized on the sensor chip surface using the standard biotin streptavidin capture method as adapted from previously established protocols. Therefore, a 4.2 µg/mL solution of both polymers was prepared in HBS-P+ buffer (pH 7.4, GE Healthcare, Uppsala, Sweden). The same buffer was used as running buffer in a flow rate of 10 µL/min. For immobilization, the immobilization wizard was used with a specified contact time of 420 s. Sodium chloride, sodium hydroxide and isopropanol solutions were prepared as specified by the manufacturer. […] After approximately 500 measurement cycles, a new SA (streptavidin) chip was used for further measurements. For immobilization, the same procedure was used as described above.\nSPR inhibition competition studies were performed using the wizard template kinetics/affinity with contact times of 105 s and dissociation times of 180 s. Before the run, the system was primed with LBB (pH 7.40 ± 0.01, 10 mM Hepes, 50 mM NaCl, 1 mM CaCl2, 1 mM MnCl2) which was used as running buffer and two startup cycles were performed. The experiment was performed in multi cycle mode. For all experiments a 1 mg/mL stock solution of Con A was prepared in LBB and was shaken for 1 h. Then it was filtrated (Acrodisc® 32 mm syringe filter with a 0.1 µm Supor® membrane from Pall Corporation, Newquay, UK) and the concentration was determined spectrophotometrically. The stock solution was diluted to give a 200 nM solution of Con A. Glyco-AuNP solutions were concentrated by centrifugation (Allegra^TM 25R Centrifuge, Beckman Coulter, Brea, CA, USA, 12 h, 4500 rcf) and were resuspended in LBB to give a 20 nM stock solution. The concentration was verified by UV measurement. This glyco-AuNP stock solution was then used to prepare the dilution series in LBB. […] For N-ethylmaleimide capped glycomacromolecule 1a a dilution series with concentrations of 0, 1, 10, 20, 50, 100, 200, 500, 1000 µM and 3a a dilution series with concentrations of 0, 2, 20, 100, 200, 500, 1000, 1500, 2000 nM was prepared. For αMeMan a dilution series with concentrations of 0, 10, 100, 500, 1000, 1500, 2000, 5000 µM was prepared. As negative control, four representative concentrations of 0, 10, 1500 and 5000 µM were prepared for D-(+)-galactose.\nFor the experiment Con A and sample solutions were mixed in a 1:1 ratio to give half of the prepared concentrations. Each mixture was injected over both flow cells whereas the binding signal on flow cell 1 was subtracted from the response on flow cell 2. As regeneration procedure three consecutive injections of a 0.8 M solution of αMeMan in LBB with a contact time of 30 s was used. The relative response value at the beginning of the dissociation phase (20 s after the end of sample injection) for the 100 nM Con A solution with zero sample concentration was set to 100% binding. The relative response values of the Con A solutions incubated with the respective sample in serial dilutions were referred to Con A and calculated for relative binding in %. IC50 values were calculated as concentration of the sample that result in 50% inhibition of Con A binding to the mannosylated sensor chip surface. RIP (relative inhibitory potency) values are based on the IC50 value for αMeMan (IP (inhibitory potency) ≡ 1). All glyco-AuNPs, glycomacromolecules and αMeMan have been tested in three independent experiments (triplicate determination per experiment for αMeMan and glyco-AuNPs, dublicate determination per experiment for glycomacromolecules 1a and 3a)."}, "Concanavalin A (Con A) [2]": {"molecular_target": "T1, Concanavalin A (Con A)", "assay": "Kinetic study of aggregation behavior with Con A by DLS and UV-Vis spectroscopy", "format": "binding", "conditions": "αMeMan 60 mM added to wells or DLS cuvettes", "procedure": "For the kinetic study of aggregation behavior with Con A performed by DLS and UV-Vis spectroscopy, a similar procedure as described by the group of Gibson was performed [41, 42].\nFor the kinetic studies using absorbance spectroscopy (Thermo Scientific, Vantaa, Finland), the stock solutions were mixed in wells of a 96-well microtiter-plate (100 µL of each solution per well). The absorbance at 400 and 700 nm was measured every minute for 30 min.\nFor the kinetic studies using DLS, the stock solutions were filtrated twice (Roth, Rotilabo® syringe filter, Karlsruhe, Germany, PTFE, 5.0 µm) and were pre-tempered to 20 °C. Then 750 µL of each stock solution were filled into the culture tubes and mixed. DLS measurements were performed at 20 °C and at a scattering angle of 90°. Every minute an intensity-time autocorrelation function was recorded with an acquisition time of 30 s during a period of 30 min."}, "[3]": {"conditions": "SA sensor chip used for 1a and 3a (footnote 1)"}}}
{"molecule": "Man(2)-5-Gly(1)-EDS(3,4)-Cys(5)-N-ethylmaleimide [glycomacromolecule 1a]", "values": [{"measurement": "IC50", "setting": "Concanavalin A (Con A) [1]; [3]", "value": 70, "unit": "µM"}, {"measurement": "RIP per Carbohydrate Ligand", "setting": "Concanavalin A (Con A) [1]", "value": 5}, {"measurement": "RIP per Glycomacromolecular Ligand", "setting": "Concanavalin A (Con A) [1]", "value": 5}, {"measurement": "RIP", "setting": "Concanavalin A (Con A) [1]", "value": 5}]}
{"molecule": "Man(2,4,6,8,10)-11-Gly(1)-EDS(3,5,7,9)-Cys(11)-N-ethylmaleimide [glycomacromolecule 3a]", "values": [{"measurement": "RIP per Carbohydrate Ligand", "setting": "Concanavalin A (Con A) [1]", "value": 419}, {"measurement": "RIP per Glycomacromolecular Ligand", "setting": "Concanavalin A (Con A) [1]", "value": 2096}, {"measurement": "RIP", "setting": "Concanavalin A (Con A) [1]", "value": 2096}]}
{"molecule": "OC[C@H]1OC(O)[C@H](O)[C@@H](O)[C@H]1O", "note": "(stereo partly drawn) [D-(+)-galactose]", "values": [{"measurement": "inhibition of Con A binding", "setting": "Concanavalin A (Con A) [1]; negative control, four representative concentrations", "value": "no inhibition"}]}
{"molecule": "CO[C@H]1O[C@H](CO)[C@@H](O)[C@H](O)[C@@H]1O", "note": "[αMeMan, methyl-α-D-mannopyranoside]", "values": [{"measurement": "redispersion of Con A induced glyco-AuNP aggregates", "setting": "Concanavalin A (Con A) [2]", "value": "redispersion of the aggregates"}, {"measurement": "IC50", "setting": "Concanavalin A (Con A) [1]; [3]", "value": 325, "unit": "µM"}, {"measurement": "IC50", "setting": "Concanavalin A (Con A) [1]; SA sensor chip with αMeMan IC50 (5.17 ± 0.84) × 10^5 nM", "value": 517, "unit": "µM"}, {"measurement": "RIP per Carbohydrate Ligand", "setting": "Concanavalin A (Con A) [1]", "value": 1}, {"measurement": "RIP per Glycomacromolecular Ligand", "setting": "Concanavalin A (Con A) [1]", "value": 1}, {"measurement": "RIP", "setting": "Concanavalin A (Con A) [1]", "value": 1}]}
